{"source": "patent US10245255B2", "about": "“Compositions and methods for the treatment of obesity and related disorders” (THE REGENTS OF THE UNIVERSITY OF MICHIGAN, priority 2011, dated 2019)", "assay": "Ob/ob mice: blood chemistry (glucose, adiponectin, serum cytokines)", "format": "in vivo", "experimental": "Wild type male C57BL/6 mice were fed a high fat diet consisting of 45% of calories from fat (D12451 Research Diets Inc., New Brunswick, N.J.) starting at 8 weeks of age for 12-24 weeks, while normal diet C57BL/6 controls were maintained on normal chow diet consisting of 4.5% fat (5002 Lab Diet, Philadelphia, Pa.). Diets containing ω-3 fatty acids were fed as previously described 24. Rosiglitazone treatment was administered for three weeks by addition of the compound to the diet in mice that had been on HFD for 16 weeks. Each mouse consumed on average 3.5 mg/kg rosiglitazone per day. Amlexanox was administered by daily oral gavage. […] Animals were housed in a specific pathogen-free facility with a 12-hour light/12-hour dark cycle and given free access to food and water. All animal use was in compliance with the Institute of Laboratory Animal Research Guide for the Care and Use of Laboratory Animals and approved by the University Committee on Use and Care of Animals at the University of Michigan and UCSD.\nBlood glucose was measured by OneTouch Ultra Glucometer. Plasma from mice fasted for six hours was isolated from whole blood collected into heparinized tubes. Insulin concentrations were measured by insulin ELISA kit (Crystal Chem Inc., Downers Grove, Ill.). Leptin and adiponectin levels were measured by ELISA kits purchased from Cayman Chem Inc. (Ann Arbor, Mich.). Cytokine levels were quantified utilizing luminex technology in a multianalyte panel plate purchased from Millipore (Billerica, Mass.). Additionally, TNFα levels were measured using ELISA kits purchased from R&D Systems (Minneapolis, Minn.).", "data": [{"smiles": "CC(C)c1ccc2oc3nc(N)c(C(=O)O)cc3c(=O)c2c1", "note": "[amlexanox, 2-amino-7-isopropyl-5-oxo-5H-chromeno[2,3-b]pyridine-3-carboxylic acid]", "values": [{"measurement": "circulating (serum) level of MCP-1", "setting": "100 mg/kg", "value": "not significantly affected"}, {"measurement": "circulating (serum) level of Rantes", "setting": "100 mg/kg", "value": "not significantly affected"}, {"measurement": "circulating adiponectin levels", "setting": "100 mg/kg", "value": "increase"}, {"measurement": "reduction in fasting glucose levels", "setting": "100 mg/kg", "value": 25, "unit": "%"}, {"measurement": "serum level of IL-1α", "setting": "100 mg/kg", "value": "markedly reduced"}, {"measurement": "serum level of MIP1α", "setting": "100 mg/kg", "value": "markedly reduced"}, {"measurement": "serum level of TNFα", "setting": "100 mg/kg", "value": "markedly reduced"}, {"measurement": "serum level of IL-10", "setting": "compared to controls", "value": "elevated"}]}]}
